# Source: doi:10.1101/2023.03.24.534094v2 (biorxiv, 2023)
# Like-named read-outs stand apart in the source and are kept apart here.
# What was measured:
# Experiment in all cases: biochemical
# BRPF1 = target: T1, BRPF1 (Homo sapiens, UniProt P55201)
# T1 sequence (P55201 1-1214): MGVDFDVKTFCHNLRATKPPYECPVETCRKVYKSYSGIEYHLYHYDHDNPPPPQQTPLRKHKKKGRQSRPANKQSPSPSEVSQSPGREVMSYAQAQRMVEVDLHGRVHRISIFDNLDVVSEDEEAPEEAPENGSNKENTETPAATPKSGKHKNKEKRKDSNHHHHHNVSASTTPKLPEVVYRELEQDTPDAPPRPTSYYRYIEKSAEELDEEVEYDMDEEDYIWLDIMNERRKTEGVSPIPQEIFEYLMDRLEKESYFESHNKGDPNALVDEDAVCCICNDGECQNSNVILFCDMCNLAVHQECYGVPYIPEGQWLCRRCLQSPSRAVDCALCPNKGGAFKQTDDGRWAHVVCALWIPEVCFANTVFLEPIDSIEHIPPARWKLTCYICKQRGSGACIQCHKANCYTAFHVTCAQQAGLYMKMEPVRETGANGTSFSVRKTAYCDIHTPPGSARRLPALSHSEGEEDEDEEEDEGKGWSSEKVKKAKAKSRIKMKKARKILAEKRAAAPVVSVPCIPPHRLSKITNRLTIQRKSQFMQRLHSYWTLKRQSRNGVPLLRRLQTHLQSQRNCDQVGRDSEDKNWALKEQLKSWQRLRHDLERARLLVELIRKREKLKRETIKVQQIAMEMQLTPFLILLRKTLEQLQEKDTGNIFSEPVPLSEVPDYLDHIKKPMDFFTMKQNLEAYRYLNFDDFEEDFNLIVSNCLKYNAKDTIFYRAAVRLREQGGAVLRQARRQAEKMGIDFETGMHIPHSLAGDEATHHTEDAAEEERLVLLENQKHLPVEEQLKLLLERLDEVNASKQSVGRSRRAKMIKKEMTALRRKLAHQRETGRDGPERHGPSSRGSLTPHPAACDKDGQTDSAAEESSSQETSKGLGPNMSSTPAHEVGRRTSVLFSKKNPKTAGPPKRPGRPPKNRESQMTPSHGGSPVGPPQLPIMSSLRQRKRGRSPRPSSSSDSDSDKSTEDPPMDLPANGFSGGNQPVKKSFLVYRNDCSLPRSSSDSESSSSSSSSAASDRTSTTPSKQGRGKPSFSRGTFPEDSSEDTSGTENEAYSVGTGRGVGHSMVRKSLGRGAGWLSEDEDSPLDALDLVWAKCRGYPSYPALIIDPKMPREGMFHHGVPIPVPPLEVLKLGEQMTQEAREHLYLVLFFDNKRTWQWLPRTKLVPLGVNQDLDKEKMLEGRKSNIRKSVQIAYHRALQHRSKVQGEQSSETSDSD
# SRPK1 = SRPK1 (Homo sapiens, UniProt Q96SB4)
# Chain of SRPK1 (Q96SB4 whole entry): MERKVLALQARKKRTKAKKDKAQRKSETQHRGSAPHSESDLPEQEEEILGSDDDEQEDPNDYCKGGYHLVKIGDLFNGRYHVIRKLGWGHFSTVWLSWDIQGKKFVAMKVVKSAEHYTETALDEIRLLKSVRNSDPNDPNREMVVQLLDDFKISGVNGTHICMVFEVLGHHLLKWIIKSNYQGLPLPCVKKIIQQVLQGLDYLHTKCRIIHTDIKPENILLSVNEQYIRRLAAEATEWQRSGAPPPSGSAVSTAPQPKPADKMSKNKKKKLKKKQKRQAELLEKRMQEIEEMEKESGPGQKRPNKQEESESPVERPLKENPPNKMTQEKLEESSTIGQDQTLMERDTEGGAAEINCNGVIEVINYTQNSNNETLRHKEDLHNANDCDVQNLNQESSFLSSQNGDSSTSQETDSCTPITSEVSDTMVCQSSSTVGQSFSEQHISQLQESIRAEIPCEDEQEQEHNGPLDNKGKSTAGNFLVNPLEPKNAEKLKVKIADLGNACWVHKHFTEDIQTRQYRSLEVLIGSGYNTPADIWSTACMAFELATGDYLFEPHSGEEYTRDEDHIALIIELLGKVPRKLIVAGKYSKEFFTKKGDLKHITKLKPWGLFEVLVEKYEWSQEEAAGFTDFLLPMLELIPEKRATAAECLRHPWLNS
# LOK = LOK (Homo sapiens, UniProt O94804)
# Chain of LOK (O94804 whole entry): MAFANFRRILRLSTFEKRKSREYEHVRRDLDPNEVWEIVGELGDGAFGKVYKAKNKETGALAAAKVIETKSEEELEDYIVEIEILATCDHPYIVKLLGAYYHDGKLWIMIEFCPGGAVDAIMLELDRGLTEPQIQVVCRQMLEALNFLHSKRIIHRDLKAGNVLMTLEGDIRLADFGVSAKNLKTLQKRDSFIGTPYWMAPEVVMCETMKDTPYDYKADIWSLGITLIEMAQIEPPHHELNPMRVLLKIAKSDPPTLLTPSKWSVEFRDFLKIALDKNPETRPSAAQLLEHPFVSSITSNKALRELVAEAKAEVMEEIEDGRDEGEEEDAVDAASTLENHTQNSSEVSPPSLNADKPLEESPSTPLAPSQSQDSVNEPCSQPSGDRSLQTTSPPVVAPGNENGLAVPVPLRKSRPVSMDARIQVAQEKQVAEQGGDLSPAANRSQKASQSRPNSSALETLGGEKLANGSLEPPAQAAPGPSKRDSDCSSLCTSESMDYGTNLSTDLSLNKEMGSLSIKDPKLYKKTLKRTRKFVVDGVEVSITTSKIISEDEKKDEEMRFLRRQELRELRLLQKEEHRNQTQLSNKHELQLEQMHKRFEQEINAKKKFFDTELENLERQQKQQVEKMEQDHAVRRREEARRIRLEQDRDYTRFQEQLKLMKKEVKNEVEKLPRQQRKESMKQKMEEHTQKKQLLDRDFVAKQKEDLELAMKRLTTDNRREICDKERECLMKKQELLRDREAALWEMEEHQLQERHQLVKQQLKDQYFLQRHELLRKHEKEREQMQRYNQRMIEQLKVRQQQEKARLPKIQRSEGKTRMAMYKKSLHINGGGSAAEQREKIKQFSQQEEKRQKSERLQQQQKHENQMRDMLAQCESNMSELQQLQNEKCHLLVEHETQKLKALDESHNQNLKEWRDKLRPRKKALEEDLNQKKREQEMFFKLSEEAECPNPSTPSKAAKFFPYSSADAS
# CaMKK2 = CaMKK2 (Homo sapiens, UniProt Q96RR4)
# Chain of CaMKK2 (Q96RR4 whole entry): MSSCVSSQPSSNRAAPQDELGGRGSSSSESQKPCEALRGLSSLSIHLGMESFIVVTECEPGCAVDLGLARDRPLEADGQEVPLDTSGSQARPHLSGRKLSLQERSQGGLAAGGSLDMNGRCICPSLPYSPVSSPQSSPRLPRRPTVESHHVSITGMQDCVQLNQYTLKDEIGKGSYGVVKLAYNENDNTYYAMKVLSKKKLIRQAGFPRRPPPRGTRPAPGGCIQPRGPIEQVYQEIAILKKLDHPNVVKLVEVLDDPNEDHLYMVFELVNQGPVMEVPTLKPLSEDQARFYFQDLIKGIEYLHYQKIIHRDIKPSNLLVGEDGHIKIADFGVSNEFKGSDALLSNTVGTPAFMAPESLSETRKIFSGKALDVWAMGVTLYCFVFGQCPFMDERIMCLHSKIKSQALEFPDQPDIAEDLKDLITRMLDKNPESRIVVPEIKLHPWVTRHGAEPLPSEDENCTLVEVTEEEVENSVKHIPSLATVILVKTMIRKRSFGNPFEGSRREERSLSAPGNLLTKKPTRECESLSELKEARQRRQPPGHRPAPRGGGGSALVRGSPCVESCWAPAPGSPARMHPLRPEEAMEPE
# DAPK1 = DAPK1 (Homo sapiens, UniProt P53355)
# Chain of DAPK1 (P53355 whole entry): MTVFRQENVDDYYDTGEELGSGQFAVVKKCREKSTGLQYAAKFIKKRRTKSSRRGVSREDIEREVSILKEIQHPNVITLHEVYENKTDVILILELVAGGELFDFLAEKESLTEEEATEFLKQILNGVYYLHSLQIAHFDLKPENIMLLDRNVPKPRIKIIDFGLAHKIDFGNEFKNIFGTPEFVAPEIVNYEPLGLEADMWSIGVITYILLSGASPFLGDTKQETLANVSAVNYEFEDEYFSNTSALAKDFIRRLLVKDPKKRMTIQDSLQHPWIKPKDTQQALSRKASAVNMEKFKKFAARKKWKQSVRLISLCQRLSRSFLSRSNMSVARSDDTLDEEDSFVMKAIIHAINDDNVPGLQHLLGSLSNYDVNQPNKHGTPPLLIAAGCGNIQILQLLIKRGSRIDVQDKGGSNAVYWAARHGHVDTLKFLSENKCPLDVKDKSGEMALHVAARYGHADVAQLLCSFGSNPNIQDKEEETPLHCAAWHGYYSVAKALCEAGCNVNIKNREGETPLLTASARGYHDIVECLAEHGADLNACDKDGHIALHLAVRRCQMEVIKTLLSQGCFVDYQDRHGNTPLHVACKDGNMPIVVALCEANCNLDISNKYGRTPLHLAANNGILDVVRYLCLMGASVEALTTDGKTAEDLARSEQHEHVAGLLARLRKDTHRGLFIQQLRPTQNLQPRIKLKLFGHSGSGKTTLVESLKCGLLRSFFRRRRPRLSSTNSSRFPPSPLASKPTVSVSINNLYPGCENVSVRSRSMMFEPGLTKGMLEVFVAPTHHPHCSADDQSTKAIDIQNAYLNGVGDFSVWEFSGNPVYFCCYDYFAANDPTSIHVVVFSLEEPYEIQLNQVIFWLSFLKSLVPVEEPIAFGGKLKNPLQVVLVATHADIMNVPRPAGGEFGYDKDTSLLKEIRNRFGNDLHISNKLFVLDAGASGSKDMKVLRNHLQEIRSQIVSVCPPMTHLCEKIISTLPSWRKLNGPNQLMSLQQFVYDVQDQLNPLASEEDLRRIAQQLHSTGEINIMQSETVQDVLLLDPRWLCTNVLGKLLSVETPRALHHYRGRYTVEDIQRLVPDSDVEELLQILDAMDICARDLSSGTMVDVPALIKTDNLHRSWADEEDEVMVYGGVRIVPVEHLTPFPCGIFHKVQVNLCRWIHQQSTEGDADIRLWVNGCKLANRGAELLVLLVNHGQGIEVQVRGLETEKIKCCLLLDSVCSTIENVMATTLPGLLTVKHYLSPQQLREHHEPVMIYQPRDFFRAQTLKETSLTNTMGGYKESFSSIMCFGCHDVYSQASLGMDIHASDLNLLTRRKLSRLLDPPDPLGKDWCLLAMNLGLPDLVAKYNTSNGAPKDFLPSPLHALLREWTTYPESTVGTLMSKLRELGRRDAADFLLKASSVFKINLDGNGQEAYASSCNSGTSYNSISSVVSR
# Haspin = target: T2, Haspin (Homo sapiens, UniProt Q8TF76)
# T2 sequence (Q8TF76 1-798): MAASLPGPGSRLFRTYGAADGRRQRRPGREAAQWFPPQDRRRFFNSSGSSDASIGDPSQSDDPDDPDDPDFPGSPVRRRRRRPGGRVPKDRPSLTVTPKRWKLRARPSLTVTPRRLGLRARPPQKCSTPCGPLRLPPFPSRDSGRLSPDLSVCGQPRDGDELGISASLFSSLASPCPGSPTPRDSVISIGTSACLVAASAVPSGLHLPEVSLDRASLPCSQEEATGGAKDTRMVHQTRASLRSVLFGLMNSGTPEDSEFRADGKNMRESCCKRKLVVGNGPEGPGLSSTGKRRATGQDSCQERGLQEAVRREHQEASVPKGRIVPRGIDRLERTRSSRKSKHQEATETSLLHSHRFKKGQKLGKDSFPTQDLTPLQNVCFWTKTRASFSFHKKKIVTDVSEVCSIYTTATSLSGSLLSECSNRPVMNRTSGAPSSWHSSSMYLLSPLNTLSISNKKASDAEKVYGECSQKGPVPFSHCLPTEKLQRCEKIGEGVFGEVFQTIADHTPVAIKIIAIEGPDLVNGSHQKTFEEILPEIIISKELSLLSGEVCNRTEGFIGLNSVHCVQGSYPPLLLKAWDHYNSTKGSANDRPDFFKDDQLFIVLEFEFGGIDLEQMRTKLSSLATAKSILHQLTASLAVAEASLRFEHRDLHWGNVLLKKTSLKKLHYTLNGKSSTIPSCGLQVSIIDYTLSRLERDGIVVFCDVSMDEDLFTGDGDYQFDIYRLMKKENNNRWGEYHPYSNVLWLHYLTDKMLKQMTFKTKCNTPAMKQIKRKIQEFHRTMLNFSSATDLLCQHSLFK
# CK1e = CK1e (Homo sapiens, UniProt P49674)
# Chain of CK1e (P49674 whole entry): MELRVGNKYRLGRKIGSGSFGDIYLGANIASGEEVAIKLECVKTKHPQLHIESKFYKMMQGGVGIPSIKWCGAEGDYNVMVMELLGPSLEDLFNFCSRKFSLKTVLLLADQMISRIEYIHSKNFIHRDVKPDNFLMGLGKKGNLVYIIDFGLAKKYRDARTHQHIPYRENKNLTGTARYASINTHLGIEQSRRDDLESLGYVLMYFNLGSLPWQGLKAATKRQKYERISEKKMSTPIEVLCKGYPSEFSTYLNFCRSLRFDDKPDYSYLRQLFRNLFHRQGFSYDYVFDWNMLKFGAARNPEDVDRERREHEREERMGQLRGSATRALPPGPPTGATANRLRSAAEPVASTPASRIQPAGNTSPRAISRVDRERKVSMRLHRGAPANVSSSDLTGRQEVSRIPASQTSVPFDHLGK
smiles,measurement,setting,value
"CNc1ncc2cc(-c3ccc(-c4cccc(C)n4)cc3Cl)c(=O)n(CC3OCC(N)CO3)c2n1 (stereo not drawn) [compound 2, G-5555]",dTm G-5555 (2),"BRPF1; 10 µM, binder",0.8 °C
same,dTm G-5555 (2),"SRPK1; 10 µM, binder",-0.4 °C
same,dTm G-5555 (2),"LOK; 10 µM, binder",10.2 °C
same,dTm G-5555 (2),"CaMKK2; 10 µM, binder",1.1 °C
same,dTm G-5555 (2),"DAPK1; 10 µM, binder",-1.0 °C
same,dTm G-5555 (2),"Haspin; 10 µM, binder",0.2 °C
"CNc1ncc2cc(-c3ccccc3Cl)c(=O)n(CCCCN)c2n1 [compound 4, 8-(4-Aminobutyl)-6-(2-chlorophenyl)-2-(methylamino)pyrido[2,3-d]pyrimidin-7(8H)-one]",ΔTm at 10 µM,CK1e; read-out: dTm MR21 (4),4.9 °C
same,ΔTm at 10 µM,BRPF1; read-out: dTm MR21 (4),0.7 °C
same,ΔTm at 10 µM,SRPK1; read-out: dTm MR21 (4),0.6 °C
same,ΔTm at 10 µM,LOK; read-out: dTm MR21 (4),5.4 °C
same,ΔTm at 10 µM,CaMKK2; read-out: dTm MR21 (4),0.6 °C
same,ΔTm at 10 µM,DAPK1; read-out: dTm MR21 (4),-0.2 °C
same,ΔTm at 10 µM,Haspin; read-out: dTm MR21 (4),0.7 °C
"CNc1ncc2cc(-c3cc(F)ccc3F)c(=O)n(CCCCN)c2n1 [compound 5, 8-(4-Aminobutyl)-6-(2,5-difluorophenyl)-2-(methylamino)pyrido[2,3-d]pyrimidin-7(8H)-one]",ΔTm at 10 µM,CK1e; read-out: dTm MR22 (5),2.8 °C
same,ΔTm at 10 µM,BRPF1; read-out: dTm MR22 (5),-1 °C
same,ΔTm at 10 µM,SRPK1; read-out: dTm MR22 (5),0.3 °C
same,ΔTm at 10 µM,LOK; read-out: dTm MR22 (5),-0.4 °C
same,ΔTm at 10 µM,CaMKK2; read-out: dTm MR22 (5),-0.1 °C
same,ΔTm at 10 µM,DAPK1; read-out: dTm MR22 (5),-0.7 °C
same,ΔTm at 10 µM,Haspin; read-out: dTm MR22 (5),-0.3 °C
"CNc1ncc2cc(-c3cc(Br)ccc3Cl)c(=O)n(CCCCN)c2n1 [compound 6, 8-(4-Aminobutyl)-6-(5-bromo-2-chlorophenyl)-2-(methylamino)pyrido[2,3-d]pyrimidin-7(8H)-one]",ΔTm at 10 µM,CK1e; read-out: dTm 6,2.6 °C
same,ΔTm at 10 µM,BRPF1; read-out: dTm 6,0.3 °C
same,ΔTm at 10 µM,SRPK1; read-out: dTm 6,0.1 °C
same,ΔTm at 10 µM,LOK; read-out: dTm 6,2.4 °C
same,ΔTm at 10 µM,CaMKK2; read-out: dTm 6,-0.2 °C
same,ΔTm at 10 µM,DAPK1; read-out: dTm 6,-0.2 °C
same,ΔTm at 10 µM,Haspin; read-out: dTm 6,0.7 °C
"CNc1ncc2cc(-c3cc(Br)ccc3Cl)c(=O)n(C[C@H]3OC[C@H](N)CO3)c2n1 [compound 7, 8-(((2r,5r)-5-Amino-1,3-dioxan-2-yl)methyl)-6-(5-bromo-2-chlorophenyl)-2-(methylamino)pyrido[2,3-d]pyrimidin-7(8H)-one]",ΔTm at 10 µM,BRPF1; read-out: dTm 7,-0.7 °C
same,ΔTm at 10 µM,SRPK1; read-out: dTm 7,0.1 °C
same,ΔTm at 10 µM,LOK; read-out: dTm 7,2.1 °C
same,ΔTm at 10 µM,CaMKK2; read-out: dTm 7,0.5 °C
same,ΔTm at 10 µM,DAPK1; read-out: dTm 7,0.1 °C
same,ΔTm at 10 µM,Haspin; read-out: dTm 7,0.7 °C
